For series [1], the system named is soybean plants (variety S20-G7). Nature of the series: Reduced plant water use in soybean (foliar spray, repeated weighing of pots). In kind it is in vivo. The following applies: Glycine max, foliar, Table B1, sprayed at 500 μM, vs negative control. An outline of the steps: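 Compounds in blank EC formulation diluted in water with EXTRAVON 1 g/20 L, foliar-sprayed on 12-day-old soybean in growth chambers. Water use from repeated pot weighing at a.m./p.m. periods over 0-2 DAA, summed to cumulative 0-2.5 DAA; ANCOVA with pre-application baseline covariate, relative to blank-formulation control.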

Series [2] has as its system corn plants (variety NK OCTET). Nature of the series: Reduced plant water use in corn (foliar spray, repeated weighing of pots). The following applies: Zea mays, corn plants sprayed at 500 μM, average of 6 pots. In kind it is in vivo. An outline of the steps:
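Twelve-day-old corn plants sprayed on foliage with EC formulations diluted in water with 0.4% rape seed methyl ester. Day-time water use tracked by repeated pot weighing through 2.5 DAA, summed cumulatively; analysed by covariance with water use 1 day before application as baseline.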

[3] abbreviates: 0 h, 0 DAA a.m. (10:30-12:50), read-out: % WU 0 DAA AM.
The mark [4] stands for this setting: 24 h, 1 DAA a.m. (7:30-12:50), read-out: % WU 1DAA AM.
Setting [5] is: 24 h, 1 DAA p.m. (14:00-19:50), read-out: % WU 1DAA PM.
Setting [6] is: 48 h, 2 DAA a.m. (07:30-12:50), read-out: % WU 2 DAA AM.
The mark [7] stands for this setting: 48 h, 2 DAA p.m. (14:00-19:50), read-out: % WU 2 DAA PM.
[8] abbreviates: 60 h, cumulative total WU (0-2.5 DAA), read-out: % WU Total 0 to 2.5 DAA.
The mark [9] stands for this setting: 0 h, water use during day time vs negative control, 0 DAA a.m. (10:30-12:50), read-out: % WU 0 DAA AM.
The mark [10] stands for this setting: 0 h, water use during day time vs negative control, 0 DAA p.m. (14:00-19:50), read-out: % WU 0DAA PM.
Setting [11] is: 24 h, water use during day time vs negative control, 1 DAA a.m. (07:30-12:50), read-out: % WU 1DAA AM.
Setting [12] is: 24 h, water use during day time vs negative control, 1 DAA p.m. (14:00-19:50), read-out: % WU 1DAA PM.
The mark [13] stands for this setting: 48 h, water use during day time vs negative control, 2 DAA a.m. (07:30-12:50), read-out: % WU 2 DAA AM.
Setting [14] is: 48 h, water use during day time vs negative control, 2 DAA p.m. (14:00-19:50), read-out: % WU 2 DAA PM.
Where [15] appears, read: 60 h, cumulative total water use 0-2.5 DAA (sum of the time points) vs negative control, read-out: % WU Total 0 to 2.5 DAA.

Like-named read-outs stand apart in the source and are kept apart here.

`CCCN1C(=O)CCc2cc(CNS(=O)(=O)c3ccc(F)cc3)ccc21` [Compound 3.009, 4-fluoro-N-[(2-oxo-1-propyl-3,4-dihydroquinolin-6-yl)methyl]benzenesulfonamide] gave a melting point of 143 to 144 °C. Also, the change in vivo at 500 µM in series [1] (setting [3]) was -17.5%. Moreover, the change in vivo at 500 µM in series [1] (setting [4]) is -9.4%. The change in vivo at 500 µM in series [1] (setting [5]) is -6.4%. The change in vivo at 500 µM in series [1] (setting [6]) was -5.5%. For the same molecule, in series [1] (setting [7]), the change in vivo at 500 µM was -4.2%. The change in vivo at 500 µM in series [1] (setting [8]) was -8.5%. Moreover, the change in vivo at 500 µM in series [2] (setting [9]) is -16.9%. The change in vivo at 500 µM in series [2] (setting [10]) is -13.9%. The change in vivo at 500 µM in series [2] (setting [11]) is -13.2%. For the same molecule, the change in vivo at 500 µM in series [2] (setting [12]) was -11.9%. The change in vivo at 500 µM in series [2] (setting [13]) was -9%. Besides, in series [2] (setting [14]), the change in vivo at 500 µM was -8.2%. The change in vivo at 500 µM in series [2] (setting [15]) was -11.6%.

Molecule `CCCN1C(=O)CCc2cc(CNS(=O)(=O)c3ccc(OC)cc3)ccc21` [Compound 3.010, 4-methoxy-N-[(2-oxo-1-propyl-3,4-dihydroquinolin-6-yl)methyl]benzenesulfonamide] showed a melting point of 143 to 144 °C. Also, the change in vivo at 500 µM in series [1] (setting [3]) is -28%. Moreover, the change in vivo at 500 µM in series [1] (setting [4]) was -3%. In addition, the change in vivo at 500 µM in series [1] (setting [5]) was -1%. In addition, the change in vivo at 500 µM in series [1] (setting [6]) was -2.1%. Moreover, the change in vivo at 500 µM in series [1] (setting [7]) was -1.7%. Besides, the change in vivo at 500 µM in series [1] (setting [8]) is -5.7%. Also, the change in vivo at 500 µM in series [2] (setting [9]) was -14.4%. Besides, in series [2] (setting [10]), the change in vivo at 500 µM is -8.3%. In addition, the change in vivo at 500 µM in series [2] (setting [11]) was -6.3%. For the same molecule, in series [2] (setting [12]), the change in vivo at 500 µM is -5.4%. Besides, the change in vivo at 500 µM in series [2] (setting [13]) was -2.5%. For the same molecule, in series [2] (setting [14]), the change in vivo at 500 µM was -2.2%. Moreover, the change in vivo at 500 µM in series [2] (setting [15]) is -5.5%.

The molecule `C/C=C/S(=O)(=O)NCc1ccc2c(c1)CCC(=O)N2CCC` [Compound 3.060, (E)-N-[(2-oxo-1-propyl-3,4-dihydroquinolin-6-yl)methyl]prop-1-ene-1-sulfonamide] returned a melting point of 95 to 99 °C. Also, in series [1] (setting [3]), the change in vivo at 500 µM was -7.9%. The change in vivo at 500 µM in series [1] (setting [4]) was -5.8%. Further, the change in vivo at 500 µM in series [1] (setting [5]) is -2.6%. The change in vivo at 500 µM in series [1] (setting [6]) is -5.4%. In series [1] (setting [7]), the change in vivo at 500 µM was -2.7%. Further, in series [1] (setting [8]), the change in vivo at 500 µM is -4.6%. Besides, the change in vivo at 500 µM in series [2] (setting [9]) is -14.8%. Besides, in series [2] (setting [10]), the change in vivo at 500 µM is -10%. The change in vivo at 500 µM in series [2] (setting [11]) was -10.6%. Moreover, the change in vivo at 500 µM in series [2] (setting [12]) was -8.4%. In addition, the change in vivo at 500 µM in series [2] (setting [13]) is -8.2%. Also, the change in vivo at 500 µM in series [2] (setting [14]) was -6.4%. Moreover, the change in vivo at 500 µM in series [2] (setting [15]) was -9.3%.

As for `CCCN1C(=O)CCc2cc(CNS(=O)(=O)c3ccc(C)s3)ccc21` [Compound 3.061, 5-methyl-N-[(2-oxo-1-propyl-3,4-dihydroquinolin-6-yl)methyl]thiophene-2-sulfonamide], the melting point is 151 to 154 °C. Besides, in series [1] (setting [3]), the change in vivo at 500 µM was -47.8%. For the same molecule, the change in vivo at 500 µM in series [1] (setting [4]) worked out at 1%. Moreover, in series [1] (setting [5]), the change in vivo at 500 µM worked out at 3.4%. Moreover, the change in vivo at 500 µM in series [1] (setting [6]) was determined as 1.6%. In series [1] (setting [7]), the change in vivo at 500 µM was 1.2%. Besides, the change in vivo at 500 µM in series [1] (setting [8]) is -13.7%. For the same molecule, the change in vivo at 500 µM in series [2] (setting [9]) was -20.8%. Besides, the change in vivo at 500 µM in series [2] (setting [10]) was -19.1%. For the same molecule, the change in vivo at 500 µM in series [2] (setting [11]) was -9.5%. Further, in series [2] (setting [12]), the change in vivo at 500 µM is -7.5%. Also, the change in vivo at 500 µM in series [2] (setting [13]) was -2.8%. For the same molecule, the change in vivo at 500 µM in series [2] (setting [14]) was -3.9%. Besides, the change in vivo at 500 µM in series [2] (setting [15]) was -9%.

For orientation: melting point means the temperature, or range, at which the solid turns liquid.

For the origin of these results see patent US10392348B2, “2-oxo-3,4-dihydroquinoline compounds as plant growth regulators” (Syngenta Participations AG, priority 2015, dated 2019).
